Values quoted from earlier work as cited in US20060058225A1, “Used of inhibitors of phospholipase a2 for the treatment, prevention or diagnosis of neural inflammatory or demyelinating disease” (McGill University, priority 2002, published 2006).
Where two headings read alike, the source gives them in different places.

What was measured:
EAE [1] = conditions: for disease severity score in treated mice: timing of treatment not stated
EAE [2] = system: EAE
EAE [3] = system: EAE; remark: listed apart in the source
cPLA2 = biological target: T1, cPLA2 (Homo sapiens, UniProt P47712)
T1 sequence (P47712 1-749): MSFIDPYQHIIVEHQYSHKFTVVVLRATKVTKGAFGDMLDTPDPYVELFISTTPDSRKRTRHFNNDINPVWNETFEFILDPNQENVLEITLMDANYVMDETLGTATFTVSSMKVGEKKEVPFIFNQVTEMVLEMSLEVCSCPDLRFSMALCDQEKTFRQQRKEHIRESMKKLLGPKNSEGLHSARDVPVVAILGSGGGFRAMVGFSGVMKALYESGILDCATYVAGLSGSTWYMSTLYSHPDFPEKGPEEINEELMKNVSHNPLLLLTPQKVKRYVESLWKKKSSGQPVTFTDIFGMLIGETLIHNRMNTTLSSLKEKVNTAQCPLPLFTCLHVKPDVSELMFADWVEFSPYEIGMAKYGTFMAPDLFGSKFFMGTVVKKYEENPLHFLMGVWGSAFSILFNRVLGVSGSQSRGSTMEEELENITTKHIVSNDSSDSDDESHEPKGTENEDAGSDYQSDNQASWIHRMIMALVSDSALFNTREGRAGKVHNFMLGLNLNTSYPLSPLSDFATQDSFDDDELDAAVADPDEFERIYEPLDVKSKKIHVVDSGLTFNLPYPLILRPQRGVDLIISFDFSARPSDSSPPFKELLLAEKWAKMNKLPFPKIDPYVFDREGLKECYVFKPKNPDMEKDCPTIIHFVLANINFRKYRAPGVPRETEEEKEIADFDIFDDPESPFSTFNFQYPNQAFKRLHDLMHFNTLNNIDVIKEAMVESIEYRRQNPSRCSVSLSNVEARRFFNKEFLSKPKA

MS = conditions: for effect on relapses: MS patients
EAE [4] = conditions: guinea pigs
[5] = system: 180 kDa calcium-dependent form of cPLA2; conditions: isolated from human brain
[6] = treatment given after symptoms occurred

CCCOc1cc([C@]2(C)CNC(=O)O2)ccc1OC [Mesopram]
clinical score in treated mice (EAE [1]; treatment after symptoms began / at first clinical signs): 2.7 | EAE occurrence (EAE [2]; rats treated before the onset of symptoms): prevented

NS(=O)(=O)c1cccc2c1c([N+](=O)[O-])cc1nc(O)c(O)nc12 [NBQX]
clinical score in treated animals (EAE [3]; in vivo): 1.5

O=C1O/C(=C/Br)CCC1c1cccc2ccccc12 (stereo not shown) [bromoenol lactone]
inhibition of cPLA2 (cPLA2): inhibitors | inhibition of Ca++-independent PLA2 (Ca++-independent PLA2): inhibitors

O=C(NN=C1CCCCC1)C(=O)NN=C1CCCCC1 [cuprizone]
clinical score in treated mice (EAE [1]; treatment before symptoms appeared (cuprizone: one week before EAE induction)): 3.3

O=C1c2c(O)ccc(O)c2C(=O)c2c(NCCNCCO)ccc(NCCNCCO)c21 [mitroxantrone]
effect on relapses (MS): reduces relapse rate | side effects (MS; patients): cardiac toxicity

O=C(CBr)c1ccc(Br)cc1 [p-bromophenacyl bromide]
inhibition of sPLA2 activity (sPLA2): blocked

CN1C(C(=O)Nc2ccccn2)=C(O)c2ccccc2S1(=O)=O [piroxicam]
mean clinical grade/score in treated rats (EAE [2]; rats): 1.5

CC1=C(/C=C/C(C)=C/C=C/C(C)=C/C(N)=O)C(C)(C)CCC1 [retinamide]
relapse (EAE [3]; given after disease symptoms appeared): no relapse | clinical grade, end of course (EAE [3]; given prior to EAE induction): 0.75 | relapse (EAE [3]; given prior to EAE induction): no sign of relapse | clinical grade reached (EAE [3]; given prior to EAE induction, controls 3 during relapses): 2 | clinical grade, end of course (EAE [3]; [6]): 2 | clinical grade, start of course (EAE [3]; [6]): 4

O=C(O)c1cc(/N=N/c2ccc(S(=O)(=O)Nc3ccccn3)cc2)ccc1O [sulfasalazine]
disease incidence (EAE [4]): reduced disease incidence

Glatiramer acetate
effect on relapses (MS): decreases the rate of relapse | side effects (MS; human, in vivo): cardiovascular problems such as chest pain, flushing and tachycardia

IFN-γ: interferon gamma
effect on relapses (MS): increases the severity of the rate of relapse

MT-II: Metallothinine (MT), thought to protect cells from reactive oxygen species
clinical score (EAE [2]; rats treated starting at the day of onset of symptoms, controls 4.5): 2

bromophenacyl bromide
inhibition of 180 kDa calcium-dependent cPLA2 [5]: inhibited

estrogen
delay of disease onset (EAE [1]; mice): about 10 days | reduction of EAE incidence (EAE [1]; mice, timing not given): ~30% | disease severity score in treated mice (EAE [1]): 1.5

B1: MBP: myelin basic protein fed for oral tolerance (protein, UniProt P02686 1-304, looked up)
Myelin basic protein: MGNHAGKRELNAEKASTNSETNRGESEKKRNLGELSRTTSEDNEVFGEADANQNNGTSSQDTAVTDSKRTADPKNAWQDAHPADPGSRPHLIRLFSRDAPGREDNTFKDRPSESDELQTIQEDSAATSESLDVMASQKRPSQRHGSKYLATASTMDHARHGFLPRHRDTGILDSIGRFFGGDRGAPKRGSGKDSHHPARTAHYGSLPQKSHGRTQDENPVVHFFKNIVTPRTPPPSQGKGRGLSLSRFSWGAEGQRPGFGYGGRASDYKSAHKGFKGVDAQGTLSKIFKLGGRDSRSGSPMARR
disease severity score in treated mice (EAE [1]): 0.6 | reduction of EAE incidence (EAE [3]; animals, species not given): 80% | maximum disease severity score (EAE [2]; rats fed prior to disease induction, control 4): 1.4
